Data taken from patent publication US4504478A, “Cephalosporin-1-oxide derivatives” (Imperial Chemical Industries PLC, priority 1982, dated 1985).

Key:
Experiment in all cases: MIC by agar-dilution, in vitro antibacterial test
Type in all cases: cell-based
Ps. aeruginosa = conditions: Code No. A21, Jewell and Pearmain agar medium, inoculum ~10^5 CFU
Description: (§1) As noted above the cephalosporin derivative of the invention has antibacterial properties, having a broad spectrum of activity in vitro against standard laboratory microorganisms, both Gram-negative and Gram-positive, which are used to screen for activity against pathogenic bacteria. The antibacterial spectrum and potency of a particular compound may be determined in a standard test system.
(§2) The results set out in the following Table of the compound described in Example 1 are illustrative of the biological activity of the compounds of the present invention. The results are those obtained on a standard in vitro test system using Jewell and Pearmain agar medium. The antibacterial activity is described in terms of the minimum inhibitory concentration (MIC) determined by agar - dilution technique with an inoculum size of ~10^5 CFU.

Staph. aureus = conditions: Code No. A6, Jewell and Pearmain agar medium, inoculum ~10^5 CFU
Description: as §1, §2

Serratia marescens = conditions: Code No. A16, Jewell and Pearmain agar medium, inoculum ~10^5 CFU
Description: as §1, §2

K. aerogenes = conditions: Code No. A10, Jewell and Pearmain agar medium, inoculum ~10^5 CFU
Description: as §1, §2

Strep. pyrogenes = conditions: Code No. A1, Jewell and Pearmain agar medium, inoculum ~10^5 CFU
Description: as §1, §2

E. coli = conditions: Code No. A8, Jewell and Pearmain agar medium, inoculum ~10^5 CFU
Description: as §1, §2

Proteus mirabilis = conditions: Code No. A18, Jewell and Pearmain agar medium, inoculum ~10^5 CFU
Description: as §1, §2

Salmonella dublin = conditions: Code No. A20, Jewell and Pearmain agar medium, inoculum ~10^5 CFU
Description: as §1, §2

Ent. cloacae = conditions: Code No. A13, Jewell and Pearmain agar medium, inoculum ~10^5 CFU
Description: as §1, §2

CC(=O)OCC1=C(C(=O)O)N2C(=O)C(Nc3ncc[nH]3)C2[S+]([O-])C1.O=C(O)C(F)(F)F (stereo not drawn) [Example 1, 3-acetoxymethyl-7-(imidazol-2-yl)aminoceph-3-em-1β-oxide-4-carboxylicacid trifluoroacetate]
minimum inhibitory concentration (MIC) (Ps. aeruginosa): > 128 µg/mL | minimum inhibitory concentration (MIC) (Staph. aureus): > 128 µg/mL | minimum inhibitory concentration (MIC) (Serratia marescens): 64 µg/mL | minimum inhibitory concentration (MIC) (K. aerogenes): 4 µg/mL | minimum inhibitory concentration (MIC) (Strep. pyrogenes): 64 µg/mL | minimum inhibitory concentration (MIC) (E. coli): 2 µg/mL | minimum inhibitory concentration (MIC) (Proteus mirabilis): > 128 µg/mL | minimum inhibitory concentration (MIC) (Salmonella dublin): 1 µg/mL | minimum inhibitory concentration (MIC) (Ent. cloacae): 2 µg/mL
